Laboratory results from US8470822B2, “Folate mimetics and folate-receptor binding conjugates thereof” (Purdue Research Foundation, priority 2001, dated 2013).
“And” between values parts separate entries of the source, which are not always exact repeats. Identical values can stand only once.

Tested on: folate-receptor-positive human KB cell tumor xenografts
Assay: Biodistribution of 111In radiotracer in KB tumor-bearing athymic mice after intravenous administration
Assay type: in vivo
Settings: for Percentage of Injected 111In Dose Per Organ (Tissue): Muscle: muscle assumed 42% of body mass
Protocol: Our primary animal model for evaluation of the biodistribution and pharmacokinetics of folate-receptor-targeted radiopharmaceuticals has been athymic mice bearing subcutaneously implanted folate-receptor-positive human KB cell tumors. […] After 3 weeks on folate-free diet, mouse serum folate levels drop to 25±7 nM from the initial 720±260 nM serum folate level when the animals are fed normal rodent chow. This dietary intervention is believed to be a reasonable manipulation of the animal model, since the mice would have serum folate levels only slightly higher than the folate concentration of normal human serum. Thus, in these mouse biodistribution studies the radiotracer is competing for tumor folate receptors with physiologically relevant concentrations of endogenous unlabeled serum folate.
The substantial retention of ^111In in the kidneys is fully consistent with the binding of ^111In-CYK4-013 to tissue folate receptors, since the renal proximal tubule is a known normal tissue site of folate receptor expression. […] The behavior of the ^111In-CYK4-013 radiopharmaceutical in this animal model (Table 2) is very similar to that observed for ^111In-DTPA-Folate (Table 3).
Results. Similar to ^111In-DTPA-Folate, ^111In-CYK4-013 selectively localized in the folate-receptor-positive tumor xenografts, and afforded prolonged tumor retention of ^111In (5.4±0.8; 5.5±1.1; and 3.6±0.6% ID/g at 1 hour, 4 hours, and 24 hours, respectively) (Table 2). […] Blockable binding was also observed in the kidneys, where the folate receptor occurs in the proximal tubules.

[1] = 1 Hour after intravenous administration
[2] = 4 Hours after intravenous administration

Percentage of Injected 111In Dose Per Gram (Tissue Wet Mass): Blood [1]: 0.18 ± 0.01 % ID/g | Percentage of Injected 111In Dose Per Gram (Tissue Wet Mass): Heart [1]: 3.5 ± 0.4 % ID/g | Percentage of Injected 111In Dose Per Gram (Tissue Wet Mass): Kidney (one) [1]: 61 ± 5 % ID/g | Percentage of Injected 111In Dose Per Gram (Tissue Wet Mass): Liver & Gall Bladder [1]: 4.3 ± 0.7 % ID/g | Percentage of Injected 111In Dose Per Gram (Tissue Wet Mass): Lungs [1]: 1.5 ± 0.2 % ID/g | Percentage of Injected 111In Dose Per Gram (Tissue Wet Mass): Muscle [1]: 3.5 ± 0.5 % ID/g | Percentage of Injected 111In Dose Per Gram (Tissue Wet Mass): Spleen [1]: 0.31 ± 0.09 % ID/g | Percentage of Injected 111In Dose Per Gram (Tissue Wet Mass): Stomach, Intestines & Contents [1]: 1.7 ± 0.2 % ID/g | Percentage of Injected 111In Dose Per Gram (Tissue Wet Mass): Tumor [1]: 5.4±0.8 % ID/g | Percentage of Injected 111In Dose Per Organ (Tissue): Liver & Gall Bladder [1]: 6.8 ± 1.3 Percentage of Injected 111In D | Percentage of Injected 111In Dose Per Organ (Tissue): Stomach, Intestines & Contents [1]: 5.8 ± 0.5 Percentage of Injected 111In D | Tumor/blood ratio [1]: 30 ± 5 | Tumor/kidney ratio [1]: 0.088 ± 0.013 | Tumor/liver ratio [1]: 1.3 ± 0.4 | Tumor/muscle ratio [1]: 1.6 ± 0.4 | Percentage of Injected 111In Dose Per Gram (Tissue Wet Mass): Blood [2]: 0.050 ± 0.009 % ID/g | Percentage of Injected 111In Dose Per Gram (Tissue Wet Mass): Heart [2]: 2.9 ± 0.9 % ID/g | Percentage of Injected 111In Dose Per Gram (Tissue Wet Mass): Kidney (one) [2]: 81 ± 7 % ID/g | Percentage of Injected 111In Dose Per Gram (Tissue Wet Mass): Liver & Gall Bladder [2]: 1.9 ± 0.6 % ID/g | Percentage of Injected 111In Dose Per Gram (Tissue Wet Mass): Lungs [2]: 1.4 ± 0.3 % ID/g | Percentage of Injected 111In Dose Per Gram (Tissue Wet Mass): Muscle [2]: 2.8 ± 0.8 % ID/g | Percentage of Injected 111In Dose Per Gram (Tissue Wet Mass): Spleen [2]: 0.29 ± 0.07 % ID/g | Percentage of Injected 111In Dose Per Gram (Tissue Wet Mass): Stomach, Intestines & Contents [2]: 1.5 ± 0.9 % ID/g | Percentage of Injected 111In Dose Per Gram (Tissue Wet Mass): Tumor [2]: 5.5±1.1 % ID/g and 5.6 ± 1.1 % ID/g | Percentage of Injected 111In Dose Per Organ (Tissue): Liver & Gall Bladder [2]: 3.0 ± 1.0 Percentage of Injected 111In D | Percentage of Injected 111In Dose Per Organ (Tissue): Stomach, Intestines & Contents [2]: 5.4 ± 0.8 Percentage of Injected 111In D | Tumor/blood ratio [2]: 111 ± 11 | Tumor/kidney ratio [2]: 0.069 ± 0.013 | Tumor/liver ratio [2]: 3.0 ± 0.5 | Tumor/muscle ratio [2]: 2.1 ± 0.2 | Percentage of Injected 111In Dose Per Organ (Tissue): Muscle [2]: 33 ± 9 Percentage of Injected 111In D | Percentage of Injected 111In Dose Per Gram (Tissue Wet Mass): Blood (4 Hours, Blocked: co-injection of folic acid dihydrate 4.1 ± 0.4 mg/kg): 0.016 ± 0.010 % ID/g
Compound: Nc1nc(O)c2nc(CNc3ccc(C(=O)NCCOCCOCCNC(=O)CN(CCN(CCN(CC(=O)O)CC(=O)O)CC(=O)O)CC(=O)O)cc3)cnc2n1.[111In+3] [^111In-CYK4-013]
Percentage of Injected 111In Dose Per Organ (Tissue): Blood [1]: 0.29 ± 0.003 Percentage of Injected 111In D | Percentage of Injected 111In Dose Per Organ (Tissue): Heart [1]: 0.51 ± 0.09 Percentage of Injected 111In D | Percentage of Injected 111In Dose Per Organ (Tissue): Kidney (one) [1]: 15.3 ± 1.2 Percentage of Injected 111In D | Percentage of Injected 111In Dose Per Organ (Tissue): Lungs [1]: 0.69 ± 0.06 Percentage of Injected 111In D | Percentage of Injected 111In Dose Per Organ (Tissue): Spleen [1]: 0.063 ± 0.016 Percentage of Injected 111In D | Percentage of Injected 111In Dose Per Organ (Tissue): Tumor [1]: 0.78 ± 0.47 Percentage of Injected 111In D | Percentage of Injected 111In Dose Per Organ (Tissue): Muscle [1]: 43.6 ± 4.1 Percentage of Injected 111In D | Percentage of Injected 111In Dose Per Organ (Tissue): Blood [2]: 0.078 ± 0.010 Percentage of Injected 111In D | Percentage of Injected 111In Dose Per Organ (Tissue): Heart [2]: 0.41 ± 0.08 Percentage of Injected 111In D | Percentage of Injected 111In Dose Per Organ (Tissue): Kidney (one) [2]: 20.2 ± 1.6 Percentage of Injected 111In D | Percentage of Injected 111In Dose Per Organ (Tissue): Lungs [2]: 0.60 ± 0.01 Percentage of Injected 111In D | Percentage of Injected 111In Dose Per Organ (Tissue): Spleen [2]: 0.049 ± 0.012 Percentage of Injected 111In D | Percentage of Injected 111In Dose Per Organ (Tissue): Tumor [2]: 0.46 ± 0.26 Percentage of Injected 111In D
